This passage reports GI50 and TGI results from PubChem BioAssay (NCI).

“And” between values parts separate entries of the source, which are not always exact repeats. Equal values may be shown once.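 In this assay, cells in 96-well plates receive the compound at five concentrations for 48 hours. Endpoints are linearly interpolated between the surrounding concentrations. GI50 marks 50% less growth. TGI: total growth inhibition.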

Among the test systems are HL-60(TB) leukemia; IGROV1 ovarian; K-562 leukemia; MALME-3M melanoma; NCI-H460 lung; NCI-H522 lung; SF-295 CNS; SK-OV-3 ovarian; SN12C renal; SW-620 colon.
Common to all, as to assay: DTP human tumour cell line panel, 48 h

Take `COc1ccc(F)c(F)c1C(=O)c1cnc(NC2CCN(S(C)(=O)=O)CC2)nc1N`: the GI50 is 0.0672 µM in the test on HL-60(TB) leukemia; 1.06 µM and 0.387 µM in the test with IGROV1 ovarian; 2.05 µM and 1.95 µM with K-562 leukemia; 1.04 µM and 1.49 µM in the test with MALME-3M melanoma; 0.165 µM and 0.117 µM in the test on NCI-H460 lung; 2.38 µM and 1.62 µM in the test with NCI-H522 lung. Moreover, the GI50 was 0.693 µM and 0.352 µM in the test on SF-295 CNS; 4.35 µM and 4.24 µM with SK-OV-3 ovarian; 0.94 µM and 0.477 µM in the test with SN12C renal; 0.183 µM and 0.108 µM in the test with SW-620 colon. Also, the TGI was 4.61 µM with HL-60(TB) leukemia; > 100 µM in the test with IGROV1 ovarian; > 100 µM in the test on K-562 leukemia; 4.79 µM and 5.38 µM in the test with MALME-3M melanoma; > 100 µM in the test with NCI-H460 lung; 6.97 µM and 5.86 µM with NCI-H522 lung. Further, the TGI in the test with SF-295 CNS, with SK-OV-3 ovarian, with SN12C renal and with SW-620 colon was > 100 µM throughout.
Consider `CC1c2ccccc2N=C2SC(=S)N3CCN=C3N21` (stereo not given), for which the GI50 in the test on HL-60(TB) leukemia, in the test with IGROV1 ovarian, in the test on K-562 leukemia, in the test on MALME-3M melanoma, in the test on NCI-H460 lung and in the test with NCI-H522 lung was > 100 µM throughout. Moreover, the GI50 was 97.8 µM in the test with SF-295 CNS, > 100 µM with SK-OV-3 ovarian, > 100 µM in the test on SN12C renal and > 100 µM in the test on SW-620 colon. For the same compound, the TGI in the test on HL-60(TB) leukemia, in the test on IGROV1 ovarian, in the test with K-562 leukemia, in the test on MALME-3M melanoma, in the test with NCI-H460 lung and in the test with NCI-H522 lung was > 100 µM throughout. Besides, the TGI in the test with SF-295 CNS, in the test on SK-OV-3 ovarian, with SN12C renal and in the test on SW-620 colon was > 100 µM in each case.
`N.N.N.N.N.O=S(=O)([O-])S(=O)(=O)[O-].[Co+3]`: the GI50 with HL-60(TB) leukemia, in the test with IGROV1 ovarian, in the test with K-562 leukemia, in the test with MALME-3M melanoma, in the test with NCI-H460 lung and with NCI-H522 lung was > 100 µM in each case. In addition, the GI50 in the test with SF-295 CNS, in the test with SK-OV-3 ovarian, with SN12C renal and in the test with SW-620 colon was > 100 µM in each case. Moreover, the TGI in the test with HL-60(TB) leukemia, in the test with IGROV1 ovarian, with K-562 leukemia, in the test with MALME-3M melanoma, with NCI-H460 lung and in the test with NCI-H522 lung was > 100 µM each time. Further, the TGI in the test on SF-295 CNS, with SK-OV-3 ovarian, with SN12C renal and in the test on SW-620 colon was > 100 µM each time.
Regarding `CC1(O)CCn2c(=O)c3cc4ccccc4cc3c(=O)n2C1O` (stereo not given), the TGI is > 100 µM in the test on HL-60(TB) leukemia; > 100 µM in the test on IGROV1 ovarian; > 100 µM with K-562 leukemia; > 100 µM with MALME-3M melanoma; > 100 µM in the test on NCI-H460 lung; 50.7 µM with NCI-H522 lung. For the same compound, the TGI in the test on SF-295 CNS, in the test with SK-OV-3 ovarian, with SN12C renal and in the test on SW-620 colon was > 100 µM throughout.
In the case of `O=[N+]([O-])c1ccc(-c2cc3c(Nc4ccc(Cl)c(C(F)(F)F)c4)ncnc3s2)cc1`, the GI50 in the test with HL-60(TB) leukemia is 0.906 µM; in the test with IGROV1 ovarian, 1.62 µM; with K-562 leukemia it was 0.872 µM; with MALME-3M melanoma, 1.51 µM; in the test with NCI-H460 lung it was 0.774 µM; with NCI-H522 lung it was 0.566 µM. The GI50 was 1.21 µM in the test with SF-295 CNS, 2.77 µM in the test with SK-OV-3 ovarian, 1.16 µM in the test on SN12C renal and 2.86 µM with SW-620 colon. The TGI in the test on HL-60(TB) leukemia was 3.62 µM; with IGROV1 ovarian, > 100 µM; with K-562 leukemia, > 100 µM; in the test with MALME-3M melanoma, 4.19 µM; in the test with NCI-H460 lung, > 100 µM; in the test with NCI-H522 lung, 5.13 µM. Also, the TGI is 6.75 µM in the test on SF-295 CNS, > 26.3 µM with SK-OV-3 ovarian, > 100 µM with SN12C renal and > 100 µM in the test on SW-620 colon.
On to `[2H]c1nc(=Nc2cc(NC(=O)C=C)c(N(C)CCN(C)C)cc2OC)[nH]c(-c2cn(C([2H])([2H])[2H])c3ccccc23)c1[2H]`, for which the GI50 was 0.848 µM in the test with HL-60(TB) leukemia; 0.122 µM in the test on IGROV1 ovarian; 1.29 µM in the test on K-562 leukemia; 1.94 µM with MALME-3M melanoma; 1.9 µM in the test on NCI-H460 lung; 0.265 µM in the test with NCI-H522 lung. For the same compound, the GI50 is 1.97 µM in the test on SF-295 CNS, 1.18 µM with SN12C renal and 1.86 µM in the test with SW-620 colon. Moreover, the TGI with HL-60(TB) leukemia turned out to be 2.5 µM; in the test on IGROV1 ovarian, 2.04 µM; in the test on K-562 leukemia it was 3.78 µM; with MALME-3M melanoma it was 3.66 µM; in the test on NCI-H460 lung, 4.37 µM; in the test on NCI-H522 lung it was 2.24 µM. Moreover, the TGI with SF-295 CNS was 4.5 µM; in the test with SN12C renal it was 2.71 µM; with SW-620 colon, 3.87 µM.
Turning to `N#C/C(=C1\SC(N=Nc2ccc(Cl)cc2)C(=O)N1c1ccccc1)c1nc2ccccc2[nH]1` (stereo not given), the TGI in the test on HL-60(TB) leukemia is > 100 µM; with K-562 leukemia it was 41 µM; with MALME-3M melanoma it was 99.1 µM; with NCI-H460 lung, > 100 µM; in the test on NCI-H522 lung it was 79.9 µM; in the test on SF-295 CNS it was 58.7 µM. Besides, the figures for the TGI with SK-OV-3 ovarian, in the test with SN12C renal and in the test with SW-620 colon were 35.6 µM, > 100 µM and > 100 µM, respectively.
On to `CN(C)C(=S)Nc1nnc(Nc2ccccc2)s1`, for which the TGI in the test on HL-60(TB) leukemia, in the test on IGROV1 ovarian, in the test on K-562 leukemia, in the test with MALME-3M melanoma, in the test with NCI-H460 lung and in the test on NCI-H522 lung was > 100 µM throughout. In addition, the TGI with SK-OV-3 ovarian, with SN12C renal and in the test with SW-620 colon was > 100 µM each time.
For the compound `CCOC(OC1=C(C#N)CCCC1)C(CC)[Se]c1ccccc1` (stereo not given), the TGI in the test with HL-60(TB) leukemia is 42.9 µM; in the test on IGROV1 ovarian, 74.1 µM; with K-562 leukemia, > 100 µM; with MALME-3M melanoma, > 100 µM; in the test with NCI-H460 lung, 34.2 µM; in the test on NCI-H522 lung, 29 µM. For the same compound, the TGI was 98.7 µM in the test with SF-295 CNS, > 100 µM in the test with SK-OV-3 ovarian and 36.9 µM with SN12C renal.
